The term IC50 denotes the concentration that gives 50% inhibition.

Where a chain is given by its changes, count along the chain named.

One test concerns the target T1, IDH2 R140L_Q316E trans (Homo sapiens, UniProt P48735, Q316E/R140L).
T1 construct: expressed in transfected cells; host or cells: U-87 MG
T1 sequence (P48735 40-452 R140L): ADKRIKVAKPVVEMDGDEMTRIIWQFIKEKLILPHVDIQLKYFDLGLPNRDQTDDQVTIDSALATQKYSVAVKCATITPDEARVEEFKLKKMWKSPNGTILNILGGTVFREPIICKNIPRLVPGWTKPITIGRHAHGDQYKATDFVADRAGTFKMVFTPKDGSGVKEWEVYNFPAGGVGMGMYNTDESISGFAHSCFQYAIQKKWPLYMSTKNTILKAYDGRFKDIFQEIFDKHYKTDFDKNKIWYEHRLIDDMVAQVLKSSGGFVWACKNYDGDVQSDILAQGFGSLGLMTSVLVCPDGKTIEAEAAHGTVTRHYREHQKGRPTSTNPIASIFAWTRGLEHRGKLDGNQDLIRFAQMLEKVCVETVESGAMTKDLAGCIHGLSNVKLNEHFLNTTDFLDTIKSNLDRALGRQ
T1 sequence (P48735 40-452 Q316E): T1 sequence (P48735 40-452 R140L) with L101R, Q277E
The test can be described thus: Inhibition of 2-HG production in IDH2 mutant U-87 MG cells. Conditions: 16 hours incubation, 50K cells/well, 100 μl media/well, read-out: Relative IC50 (nM) Mean, inhibition of 2-HG production. In kind it is cell-based.

The next test concerns the target T2, IDH2 R172K_P167R cis (Homo sapiens, UniProt P48735, P167R/R172K).
T2 construct: expressed in transfected cells; host or cells: U-87 MG
T2 sequence (P48735 40-452 P167R/R172K): T1 sequence (P48735 40-452 R140L) with L101R, P128R, R133K
Described as above. In kind it is cell-based. Conditions: 16 hours incubation, 50K cells/well, 100 μl media/well, read-out: Relative IC50 (nM) Mean, inhibition of 2-HG production.

Turning to `C=CC(=O)N1CCN([C@@H](CC2CC2)c2ccc([C@H](C)Nc3ncc4c(n3)N(CC)C(=O)OC4)cc2)CC1` [Compound A, 7-[[(1S)-1-[4-[(1S)-2-cyclopropyl-1-(4-prop-2-enoylpiperazin-1-yl)ethyl]phenyl]ethyl]amino]-1-ethyl-4H-pyrimido[4,5-d][1,3]oxazin-2-one], the IC50 at IDH2 R140L_Q316E trans was 262 nM; on IDH2 R172K_P167R cis, 119 nM.

The values above are taken from patent US20240261294A1, “METHOD FOR TREATING IDH INHIBITOR-RESISTANT SUBJECTS” (Eli Lilly and Company, priority 2021, published 2024).
